Results reported in US10881642B2, “Autophagy enhancer and use thereof” (Industry-Academic Cooperation Foundation, Yonsei University, priority 2016, dated 2021).

What was measured:
HeLa cells [1] = assay: Viability of Hela cells; type: cell-based; details: 50-100 μM, 48 hrs
Procedure: FIG. 10 is the result of the experiments using compound of formula 2 (hereinafter referred to as MSL-7) of the present disclosure as an autophagic enhancer. FIG. 10A is the result of immuneblot using the antibodies indicated using Hela cells treated with MSL or MSL-7. FIG. 10B is the result of measuring the viability of Hela cells treated with vehicle control or various concentration of MSL-7 (50-100 μM) for 48 hrs. FIG. 10C is the result of DAPI stained nuclei of TFEB-GFP HeLa cells which were treated with vehicle control or MSL-7 for 4 hrs. The graph indicates the percentage of TFEB translocated into the nuclei. Error bars, S.D. *, P<0.05; **, P<0.01; ***, P<0.001.
Screening of autophagy enhancer. […] Firefly luciferase was determined after mixing 5 μl of lysate with 25 μl of Luciferase Assay Reagent II. Renilla luciferase was then determined after further addition of 20 ul of Stop&Glo Reagent. […] Cytotoxicity was determined by the measurement of LDH release in cell culture media using the LDH kit (Roche), according to the protocol from the manufacturer. […] Imaging and image quantification. […] Formation of acidic vesicular organelles was quantitated by staining the cells with acridine orange (Invitrogen, 5 ug/ml, 10 min). […] Cells or tissues were solubilized in lysis buffer supplemented with protease and phosphatase inhibitors and protein concentration was measured by the Bradford method. […]

Hepa1c1c7 cells = assay: Lipid droplet clearance after PA and OA loading; type: cell-based
HeLa cells [2] = assay: GCaMP3-ML1 lysosomal Ca2+ release imaging; type: cell-based; details: GPN 200 μM; ionomycin 1 μM
ob/ob mice = assay: In vivo autophagic flux and TFEB-related gene expression in liver
Procedure: FIG. 7A is the result of the experiment in which ob/ob mice were peritoneally injected with 30 mg/kg leupeptin and then after 1 hr, vehicle control or MSL compound were peritoneally administered. Three hours post administration, the liver lysates were prepared and immunoblotted. The numbers above the bands indicates fold changes normalized to beta actin bands. FIG. 7B indicates the concentration of mRNA of TFEB related genes measured by performing RT-PCT using a total RNA isolated from liver sample treated same as above except that Leupeptin was not administered. The values represent mean±S.D of fold changes compared to control mice (vehicle control) obtained from three mice.
Screening of autophagy enhancer. […] Luciferase assay. Firefly and Renilla luciferase assays were conducted using the Dual-Luciferase Reporter Assay System (Promega) according to the manufacturer's recommendation. In brief, cells were lysed in 1× lysis buffer and subjected to a single round of freezing/thawing. Firefly luciferase was determined after mixing 5 μl of lysate with 25 μl of Luciferase Assay Reagent II. Renilla luciferase was then determined after further addition of 20 ul of Stop&Glo Reagent. Cell culture and media and drugs treatment. […] Cytotoxicity was determined by the measurement of LDH release in cell culture media using the LDH kit (Roche), according to the protocol from the manufacturer. […] Imaging and image quantification. […] Formation of acidic vesicular organelles was quantitated by staining the cells with acridine orange (Invitrogen, 5 ug/ml, 10 min). […] Cells or tissues were solubilized in lysis buffer supplemented with protease and phosphatase inhibitors and protein concentration was measured by the Bradford method. Ten to 30 micrograms were loaded on 4-12% Bis-Tris gel (NUPAGE, Invitrogen) or 8-15% SDS-PAGE, transferred to PVDF membranes and analyzed by western blot using the ECL method (Pierce). […] Protein levels were quantified by using ImageJ software analysis. […]

SMILES	cellular toxicity (HeLa cells [1])	lipid content in cells loaded with PA and OA (Hepa1c1c7 cells)	content of lipid droplets stained BODIPY (Hepa1c1c7 cells; PA and OA loaded, 16 h)	lysosomal Ca2+ release (HeLa cells [2])	autophagic activity in the liver measured after leupeptin administration (ob/ob mice; after 8 weeks of administration)	LC3-I to -II conversion in the liver (ob/ob mice; after pretreatment with leupeptin)	expression of TFEB-regulated genes (ob/ob mice; liver, compared to controls)
COc1oc(-c2ccccc2Cl)nc1S(=O)(=O)c1ccccc1 [MSL-7, 2-(2-chlorophenyl)-5-methoxy-4-(phenylsulfonyl) oxazole]	without cellular toxicity	–	–	–	–	–	–
CSc1oc(-c2ccccc2)nc1S(=O)(=O)c1ccc(F)cc1 [MSL]	–	significantly reduced	significantly decreased	no increase of lysosomal Ca2+ release	increased	increased	significantly higher
